This is an account of results in patent publication US20220089602A1, “COMPOUNDS THAT INDUCE FERROPTIC CELL DEATH” (The Board of Trustees of the University of Illinois, priority 2019, published 2022).

For one series, the system named is HT-29 cells. The experiment in a line: RNA sequencing of treated cells. The format is cell-based. Particulars: 10 μM, 6 hr. The procedure: Total RNA was extracted by RNeasy Kit (QIAGEN) and digested with DNase (QIAGEN) from n=2 samples per condition (DMSO, 10 μM ferroptocide cells treated for 6 hr). RNA quality was assessed with a 2100 Agilent Bioanalyzer prior to library preparation. The RNAseq libraries were prepared using the TruSeq Stranded mRNAseq Sample Prep kit (version 1) following manufacturer's instruction (Illumina). Libraries were then quantified, pooled, and sequenced by single-end 150 base pairs using the Illumina HiSeq 4000 platform at the Roy J. Carver Biotechnology center. FASTQ files were generated and demultiplexed with the bcl2FASTQ v2.17.1.14 Conversion Software (Illumina). Libraries were sequenced at an average depth of 40-50 million reads per sample. Trimmomatic (v0.36) was utilized to remove sequencing adapters, low-quality bases (PHRED score <28), and reads less than 30 bases in length. Pseudo-alignment and transcript-level counting to NCBI's GRCh38.p11 transcriptome was then performed with Salmon (v 0.8.2) in quasi-mapping mode while correcting for sequence-specific and GC biases, and generating 30 bootstraps. Counts summarized to the gene level (NCBI annotation release 108) using tximport (v 1.6.0) and the “lengthScaledTPM” method. The counts were normalized using the TMM method from edgeR (v 3.20.5) and then transformed to log 2 counts per million (log CPM) with prior.count=3. Genes without at least log CPM>log 2(0.5) in at least 3 samples were filtered out, leaving 16,743 genes for differential expression testing. TMM normalization was re-done after filtering and then limma's (v 3.34.5) voom method was used to find differentially expressed genes for the pairwise comparisons of treatment vs. control in A549, and treatment vs. control in HT29 (batch 2 and 3, 8 samples total, 6 hr), and the interaction between treatment and cell line. P values were adjusted for multiple hypothesis testing with the Benjamini-Hochberg method to generate false discovery rates. Gene set enrichment analysis was done using ESGEA (v 1.6.1) for the Gene Ontology BP, CC and MF gene sets, KEGG pathway gene sets, and Pathway gene sets. The RNA sequencing data have been deposited to the GEO repository with the accession number GSE126868.

The subject of another series is ES-2 cell line. The series can be described thus: 72 hr cell viability assay (Alamar Blue), dose response IC50. Particulars: Homo sapiens; 72 hr, ES-2 cell line, Alamar Blue fluorescence, mean ± s.e.m., n ≥ 3. The series is classed as cell-based. The procedure: 40 μL of media was added to each well of a 384-well tissue culture-treated plate. 3×100 nL of compound in DMSO was then pin-transferred from compound storage plates (2 mM stocks) into media-containing wells using the Platemate Plus at the UIUC High Throughput Screening Facility. A 100,000 cells/mL suspension of ES-2 cells was prepared, and 10 μL was added to each well for a final concentration of 1000 cells/well. Doxorubicin (100 μM final) was used as a positive control. Plates were sealed with gas-permeable seals and incubated at 37° C. for 72 h. After incubation, 5 μL of Alamar blue (440 μM resazurin in sterile PBS) was added and allowed to incubate for 3-4 h, until visible color change occurred. Fluorescence was measured in a Molecular Devices SpectraMax 3 (excitation=555 nm, emission=585 nm, emission cutoff=570 nm).
To a 384-well plate, 40 μL of 1.25× compound dilution or 1.25% DMSO-containing media was added (final volume of 1% DMSO). Concentrations of compounds tested were 100 μM to 100 nM. On each plate at least 3 technical replicates per compound were performed. Next, 10 μL of a 100,000 cells/mL suspension was added to each well, yielding a final concentration of 1,000 cells/well. To three wells in column 2 was added 1 μL of 10 mM doxorubicin (final concentration of 200 μM) as positive control of cell death. Plates were sealed with gas-permeable seals and incubated at 37° C. for 72 h. At that time, 5 μL of Alamar blue (440 μM resazurin in sterile PBS) was added and plates were incubated for 3-4 hours. Fluorescence was read on a Molecular Devices SpectraMax 3 (excitation=555 nm, emission=585 nm, emission cutoff=570 nm). Wells were normalized to the average of untreated wells (0% cell death). The data were plotted as compound concentration versus percent dead cells and fitted to a logistic-dose response curve using OriginPro 2015 (OriginLab, Northampton, Mass.). The data were generated in triplicate, and IC50 values are reported as the average of three separate experiments along with standard error of the mean.
On the technique in general: The colour change of resazurin is a common sign of viable cells or microbes.

Series [1] in a line: In vitro glutathione assay (LC-MS). The format is physicochemical. Particulars: 100 μM compound, 5 mM glutathione, PBS, 37° C. Here is the method:
To an eppendorf tube added, 245 μL of 1×PBS, 5 μL of 10 mM DMSO stock of ferroptocide or P23 and 250 μL of reduced GSH (5 mM final concentration). Reactions were vortexed briefly and incubated at 37° C. Adduct formation was monitored at the indicated time points (0, 0.5, 1, 2, 3, 24 hr) by mixing an aliquot of 50 μL from the reaction mixture with 50 μL of MeOH before LC/MS analysis.

In general, IC50 refers to the concentration needed to halve the response being measured. Lower therefore signals higher potency. On to `C[C@@H]1CC[C@@]23C[C@H](O)C(=O)[C@@]2(O)[C@]1(C)[C@H](OC(=O)CCl)C[C@@H](C1=CCn2c(=O)n(-c4ccccc4)c(=O)n2C1)[C@@H]3C` [Compound P18, ferroptocide], for which the “genes involved in ferroptosis modulated” value in the series with HT-29 cells (FDR ≤0.05) was 35/40. In the series with HT-29 cells (HT-29), the “ATF3 upregulation (RNA-seq)” value is on record as 11.5 fold, the “CHAC1 upregulation (RNA-seq)” value came out at 9.8 fold, the “DDIT3 upregulation (RNA-seq)” value is on record as 22.5 fold and the “DDIT4 upregulation (RNA-seq)” value was 11.3 fold. Further, in the series on HT-29 cells (HT-29), the “GCLC upregulation (RNA-seq)” value came to 3.5 fold, the “GCLM upregulation (RNA-seq)” value stood at 4.9 fold and the “SLC7A11 upregulation (RNA-seq)” value was determined as 8.1 fold. This molecule returned an IC50 in the series with ES-2 cell line of 1.6 µM. Further, the “reactivity with excess glutathione (in words)” value in series [1] was “reacts slowly”. Also, in series [1] (0.5 hr), the “Compound remaining (%)” value turned out to be 95.1% and the “GSH-Ferroptocide adduct (%)” value worked out at 4.9%. Also, in series [1] (1 hr), the “Compound remaining (%)” value came to 81.8% and the “GSH-Ferroptocide adduct (%)” value is 18.2%. For the same molecule, in series [1] (2 hr), the “GSH-Ferroptocide adduct (%)” value came to 33.2%. Also, the “Compound remaining (%)” value in series [1] (2 hr, listed as Ferroptocide) is reported as 66.8%. In addition, in series [1] (2 hr, listed as ferroptocide), the “Compound remaining (%)” value turned out to be 67%. Further, in series [1] (3 hr), the “Compound remaining (%)” value turned out to be 61.9% and the “GSH-Ferroptocide adduct (%)” value is 38.1%. In series [1] (24 hr), the “Compound remaining (%)” value stood at 27.5% and the “GSH-Ferroptocide adduct (%)” value is listed as 72.5%.
